In ChEMBL document CHEMBL1201862, “PubChem BioAssay data set” (2004):
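Values below derive from 48-hour exposures of cells grown in 96-well plates, with endpoints linearly interpolated between the two concentrations bracketing the appropriate inhibition level. GI50 = concentration required for 50% inhibition of growth.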 Activity calls are given as the source filed them. Cut-off read from the data, not from the text of the source: active = GI50 up to about 1.1 µM and inactive = higher.

Legend:
Experiment in all cases: DTP human tumour cell line panel, 48 h
[1] = test system: NCI-H226
[2] = test system: SW-620
[3] = test system: NCI-H522
[4] = test system: PC-3
[5] = test system: RPMI-8226
[6] = test system: OVCAR-4
[7] = test system: DU-145
[8] = test system: SK-MEL-28
[9] = test system: SF-295
[10] = test system: HOP-92
[11] = test system: 786-0
[12] = test system: NCI-H23
[13] = test system: M14
[14] = test system: MDA-MB-231
[15] = test system: COLO 205
[16] = test system: SR
[17] = test system: HL-60
[18] = test system: KM12
[19] = test system: T47D
[20] = test system: HCC 2998

| SMILES | GI50 [1] | GI50 [2] | GI50 [3] | GI50 [4] | GI50 [5] | GI50 [6] | GI50 [7] | GI50 [8] | GI50 [9] | GI50 [10] | GI50 [11] | GI50 [12] | GI50 [13] | GI50 [14] | GI50 [15] | GI50 [16] | GI50 [17] | GI50 [18] | GI50 [19] | GI50 [20] |
| --- | --- | --- | --- | --- | --- | --- | --- | --- | --- | --- | --- | --- | --- | --- | --- | --- | --- | --- | --- | --- |
| COc1cc2c(cc1OCCCCN1CCN(CCCCOc3cc4c(cc3OC)C(=O)N3CCC[C@H]3C=N4)CC1)N=C[C@@H]1CCCN1C2=O | < 0.01 µM (active) | < 0.0119 µM (active) | < 0.01 µM (active) | 0.0873 µM (active) | < 0.0125 µM (active) | 0.0776 µM (active) | 0.0361 µM (active) | 0.0206 µM (active) | < 0.0352 µM (active) | < 0.01 µM (active) | < 0.014 µM (active) | < 0.0241 µM (active) | 0.02 µM (active) | 0.0378 µM (active) | 0.0158 µM (active) | 1 µM (active) | < 0.01 µM (active) | 0.0628 µM (active) | < 0.0118 µM (active) |  |
| Cn1cnc([N+](=O)[O-])c1[Se]c1ncnc2nc[nH]c12 | 10.5 µM (inactive) | 10.3 µM (inactive) | 3.57 µM (inactive) | 20.6 µM (inactive) | 5.01 µM (inactive) | 3.32 µM (inactive) | 19.1 µM (inactive) | 3.79 µM (inactive) | 4.21 µM (inactive) | 12.2 µM (inactive) | 10.4 µM (inactive) | 17.3 µM (inactive) | 5.47 µM (inactive) | 5 µM (inactive) | 15.1 µM (inactive) | 2.04 µM (inactive) |  | 5.69 µM (inactive) | 15.2 µM (inactive) |  |
| CCOC(=O)C(Cc1ccc(OC(=O)OC(C)(C)C)cc1)NC(=O)OC(C)(C)C (stereo not drawn) | > 100 µM (inactive) | 34.7 µM (inactive) | > 100 µM (inactive) | 34.5 µM (inactive) |  | > 100 µM (inactive) | 30.5 µM (inactive) | > 100 µM (inactive) | > 100 µM (inactive) |  | 34.8 µM (inactive) | > 100 µM (inactive) | 26.5 µM (inactive) | 41.6 µM (inactive) | 39.7 µM (inactive) | 26.4 µM (inactive) | 28.2 µM (inactive) | 70.6 µM (inactive) | 29 µM (inactive) | 30.3 µM (inactive) |
| C=CC(C)(C)c1c(OC)oc2ccc(OC)c(C)c2c1=O | > 100 µM (inactive) | > 100 µM (inactive) | 98.2 µM (inactive) | 78.7 µM (inactive) | > 100 µM (inactive) |  | > 100 µM (inactive) | > 100 µM (inactive) | > 100 µM (inactive) |  | > 100 µM (inactive) | > 100 µM (inactive) | > 100 µM (inactive) | > 100 µM (inactive) | > 100 µM (inactive) | 84.1 µM (inactive) | 70.6 µM (inactive) | > 100 µM (inactive) | 56.4 µM (inactive) | > 100 µM (inactive) |
| CC(=O)NC1CONC1=O (stereo not drawn) | > 100 µM (inactive) | > 100 µM (inactive) | > 100 µM (inactive) | > 100 µM (inactive) | > 100 µM (inactive) | > 100 µM (inactive) | > 100 µM (inactive) | > 100 µM (inactive) | > 100 µM (inactive) | > 100 µM (inactive) | > 100 µM (inactive) | > 100 µM (inactive) | > 100 µM (inactive) | > 100 µM (inactive) | > 100 µM (inactive) | > 100 µM (inactive) | > 100 µM (inactive) | > 100 µM (inactive) | > 100 µM (inactive) |  |
| CCC1([N+](=O)[O-])CN(N=O)C1 | > 100 µM (inactive) | > 100 µM (inactive) | > 100 µM (inactive) | > 100 µM (inactive) | > 100 µM (inactive) | > 100 µM (inactive) | > 100 µM (inactive) | > 100 µM (inactive) | > 100 µM (inactive) | 34.4 µM (inactive) | > 100 µM (inactive) | > 100 µM (inactive) | > 100 µM (inactive) | > 100 µM (inactive) | > 100 µM (inactive) | > 100 µM (inactive) | > 100 µM (inactive) | > 100 µM (inactive) | > 100 µM (inactive) |  |
| CC(=O)OC1=CC2=CC[C@H]3[C@@H]4CCC(=O)[C@@]4(C)CC(=O)[C@]3(S)[C@@]2(C)CC1 |  | 31.6 µM (inactive) | 20 µM (inactive) | 32.9 µM (inactive) | 20.9 µM (inactive) | 57.8 µM (inactive) | 62.5 µM (inactive) | 55 µM (inactive) | 48.4 µM (inactive) | 24.8 µM (inactive) | 27.8 µM (inactive) | 36.6 µM (inactive) | 36.9 µM (inactive) | 26 µM (inactive) | 32.4 µM (inactive) | 23.6 µM (inactive) |  | 26.3 µM (inactive) | 34.8 µM (inactive) | 31.6 µM (inactive) |
| COC(=O)c1cc(/C=C\c2cc(OC)ccc2OC)ccc1OC |  | 38.9 µM (inactive) | 19.9 µM (inactive) | 26.1 µM (inactive) | 18.4 µM (inactive) | 33.6 µM (inactive) | 26.9 µM (inactive) | 18.4 µM (inactive) | 30.8 µM (inactive) |  | 35.1 µM (inactive) | 43.3 µM (inactive) | 26.1 µM (inactive) | 34.4 µM (inactive) | 21.2 µM (inactive) | 10.4 µM (inactive) |  | 29.2 µM (inactive) | 18.7 µM (inactive) | 22.4 µM (inactive) |
| CNC(=O)Nc1cc2c3c(c1)CCCN3CCC2 | > 10 µM (inactive) | > 10 µM (inactive) | > 10 µM (inactive) | > 10 µM (inactive) | > 10 µM (inactive) | > 10 µM (inactive) | > 10 µM (inactive) | > 10 µM (inactive) | > 10 µM (inactive) | > 10 µM (inactive) | > 10 µM (inactive) | > 10 µM (inactive) | > 10 µM (inactive) | > 10 µM (inactive) | > 10 µM (inactive) | > 10 µM (inactive) |  | > 10 µM (inactive) | > 10 µM (inactive) | > 10 µM (inactive) |
| CN(C)Cc1ccc(O)c(CN(C)C)n1 | > 100 µM (inactive) | > 100 µM (inactive) | > 100 µM (inactive) | > 100 µM (inactive) | > 100 µM (inactive) | > 100 µM (inactive) | > 100 µM (inactive) | > 100 µM (inactive) | > 100 µM (inactive) | > 100 µM (inactive) | > 100 µM (inactive) | > 100 µM (inactive) | > 100 µM (inactive) | > 100 µM (inactive) | > 100 µM (inactive) | > 100 µM (inactive) |  | > 100 µM (inactive) | > 100 µM (inactive) |  |
| COc1cc2c(cc1OC)C1Cc3ccccc3CN1CCC2 (stereo not drawn) | 90.6 µM (inactive) | > 100 µM (inactive) | > 100 µM (inactive) | > 100 µM (inactive) |  | 88.3 µM (inactive) | > 100 µM (inactive) | > 100 µM (inactive) | > 100 µM (inactive) | 92.9 µM (inactive) | > 100 µM (inactive) | > 100 µM (inactive) | 93.5 µM (inactive) | > 100 µM (inactive) | > 100 µM (inactive) | > 100 µM (inactive) |  | > 100 µM (inactive) | 63.7 µM (inactive) | > 100 µM (inactive) |
| O=C(c1ccccc1)C1C(c2ccccc2[N+](=O)[O-])N1C1CCCCC1 (stereo not drawn) | 17 µM (inactive) |  | 2.11 µM (inactive) | 3.95 µM (inactive) | 1.72 µM (inactive) | 9.33 µM (inactive) | 10.1 µM (inactive) | > 42.3 µM (inactive) | 15.4 µM (inactive) | 3.5 µM (inactive) | 1.99 µM (inactive) | 16.4 µM (inactive) | 9.42 µM (inactive) | 7.69 µM (inactive) | 7.26 µM (inactive) | 0.634 µM (active) |  | 11.9 µM (inactive) | 2.51 µM (inactive) | 6.79 µM (inactive) |
| CC[C@@]1(O)C(=O)OCc2c1cc1n(c2=O)Cc2cc3cc(O)ccc3nc2-1 [HYDROXYCAMPTOTHECIN] |  |  | 0.0105 µM (active) | 0.084 µM (active) |  | 0.092 µM (active) | 0.01 µM (active) |  |  | 0.0277 µM (active) | 0.0241 µM (active) | 0.0176 µM (active) | 0.0336 µM (active) | 0.867 µM (active) | 0.125 µM (active) | 0.01 µM (active) | 0.0161 µM (active) |  | 0.01 µM (active) |  |
| O=Nc1c(-c2cccc([N+](=O)[O-])c2)nc2cnccn12 | 18.5 µM (inactive) | 10.1 µM (inactive) | 14.6 µM (inactive) | 24.9 µM (inactive) |  | 17.7 µM (inactive) | 16.4 µM (inactive) | 21.5 µM (inactive) | 43.4 µM (inactive) | 20 µM (inactive) | 16 µM (inactive) | 16.7 µM (inactive) | 18.7 µM (inactive) | 13.8 µM (inactive) | 20 µM (inactive) | 2.2 µM (inactive) | 34.2 µM (inactive) | 30.9 µM (inactive) | 15.1 µM (inactive) |  |
| COCN(CCC1=CCCCC1)C(=O)OC |  | > 100 µM (inactive) | 38.1 µM (inactive) | > 100 µM (inactive) | > 100 µM (inactive) | > 100 µM (inactive) | 49.8 µM (inactive) | > 100 µM (inactive) | 28.2 µM (inactive) | > 100 µM (inactive) | > 100 µM (inactive) | 51.6 µM (inactive) | > 100 µM (inactive) | > 100 µM (inactive) | > 100 µM (inactive) | > 100 µM (inactive) |  | > 100 µM (inactive) | 89.1 µM (inactive) | > 100 µM (inactive) |
